Measurements from patent US9458460B2, “Pharmaceutical compositions for treating cancer” (National University of Singapore, priority 2011, dated 2016).
Where two headings read alike, the source gives them in different places.

Columns and labels:
Assay type in all cases: cell-based
GC cells = assay: high-content screening of morpho-cellular parameters after cisplatin treatment
Protocol: The reason for cell growth inhibition caused by cisplatin was determined using high-content screening (HCS), a cell-based technology allowing biological responses to be measured at the single-cell level, to quantify levels of caspase-3 activation in GC cells after cisplatin treatment. Five distinct morpho-cellular parameters were quantified for alterations induced by cisplatin—caspase3 activation, nuclear size, nuclear condensation, nuclear morphology and nuclear ellipticity.

YCC11 cells [1] = assay: cisplatin growth inhibition and caspase-3 activation in BMP4-manipulated cells; conditions: for IC50: read-out: absolute 0150
AZ521 cells = assay: as above; conditions: for GI50: read-out: absolute GI50
YCC11 cells [2] = assay: cisplatin growth inhibition (GI50) in GC cell lines; conditions: 48 hrs
Protocol: (§1) 20 GC cell lines were treated with increasing concentrations of cisplatin, from 0.1 μM to 1 mM. For each line, the cisplatin GI50, referring to the concentration of cisplatin required to cause 50% growth inhibition at 48 hrs.

AGS cells = assay: as above; conditions: 48 hrs
Protocol: as §1

BMP4 = BMP4 expression after 5-azadC treatment
Protocol: (§2) Gastric cancer cell lines were treated with 5-aza-2′-deoxycytidine (5-azadC), a chemical inhibitor of DNA methyltransferases to investigate if BMP4 gene expression is regulated by BMP4 promoter methylation.

SMAD1/5/8 = assay: phosphorylation of BMP-downstream targets after 5-azadC treatment
Protocol: as §2

| Compound | caspase-3 activation levels (GC cells; cisplatin-sensitive lines compared to cisplatin-resistant lines) | nuclear ellipticity (GC cells; top four sensitive lines compared to resistant lines) | IC50 (YCC11 cells [1]; BMP4-overexpressing YCC11 cells (individual clones 1 and 2)) | active Caspase-3 levels (YCC11 cells [1]; BMP4-overexpressing YCC11 cells, after cisplatin) | IC50 (YCC11 cells [1]; parental YCC11 cells) | GI50 (AZ521 cells; BMP4-silenced AZ521 cells (individual clones 1 and 2)) | caspase-3 activation levels (AZ521 cells; BMP4-silenced AZ521 cells compared to control cells, after cisplatin treatment) | GI50 (AZ521 cells; parental AZ521 cells) | GI50 (YCC11 cells [2]) | GI50 (AGS cells) | BMP4 transcripts (BMP4; cisplatin sensitive lines YCC10 and YCC11 (BMP4 promoter methylated)) | BMP4 expression (BMP4; resistant cell lines MKN45 and AZ521 (BMP4 promoter unmethylated)) | phosphorylated SMAD1/5/8 (SMAD1/5/8; cisplatin resistant lines MKN45 and AZ521) | phosphorylation of SMAD1/5/8 (SMAD1/5/8; cisplatin sensitive lines YCC10 and YCC11) |
| --- | --- | --- | --- | --- | --- | --- | --- | --- | --- | --- | --- | --- | --- | --- |
| N.N.[Cl][Pt][Cl] [cisplatin, cis-diamminedichloroplatinum (II)] | Significantly higher | Significant changes | 200 to 500 nM | reduction | 45 nM | 1100 to 3240 nM | significantly higher | 15000 nM | 1500 nM | 126000 nM | – | – | – | – |
| Nc1ncn([C@H]2C[C@H](O)[C@@H](CO)O2)c(=O)n1 [5-azadC, 5-aza-2′-deoxycytidine] | – | – | – | – | – | – | – | – | – | – | up-regulated | did not alter | not affected | increased |
